# Experiments:
# rat hippocampal slices = test: Oxygen and glucose deprivation (15 minutes OGD, 2 hours reoxygenation) in hippocampal slices, MTT cell viability; assay type: cell-based
# Experimental: Male Spague Dawley strain rats (250-325 g) were used. After anaesthesia by means of an intraperitoneal injection of 60 mg/Kg sodium pentobarbital (Euta-Lender®), they were decapitated with a guillotine and the brain was extracted after a craniotomy. The brain was immediately submersed in a dissection solution, a cold (4° C.) modified Krebs-Henseleit solution at pH 7.4, the composition of which is: 120 mM NaCl, 2 mM KCl, 0.5 mM CaCl2, 26 mM NaHCO3, 10 mM MgSO4, 1.18 mM KH2PO4, 11 mM glucose and 200 mM sucrose, bubbled with 95% O2-5% CO2. The hippocampi were isolated, embedded in 2% low melting point agarose (Sigma-Aldrich), and cut into 350 μm transverse slices in a vibratome (Leica VT1000S).
# After the cutting in the vibratome, the slices were transferred to a vial with sucrose-free dissection Krebs solution, bubbled with 95% O2-5% CO2 for 60 minutes (equilibrium period).
# After the equilibrating period, the medium was removed and an oxygenated solution (normal Krebs solution (120 mM NaCl, 2 mM KCl, 2 mM CaCl2, 26 mM NaHCO3, 1.19 mM MgSO4, 1.18 mM KH2PO4 and 11 mM glucose), bubbled with 5% CO2 and 95% O2 for 30 minutes (preincubation period), was introduced. The baseline slices were maintained in this oxygenated solution throughout the entire experiment. To induce OGD, the oxygenated solution was replaced with another one which lacked glucose and was bubbled with a mixture of gases of 5% CO2 and 95% N2 (anoxic solution). The slices were in a bath at 37° C. After inducing OGD, the anoxic medium was replaced with another one which contained the oxygenated solution (reoxygenation period).
# To evaluate the effect of the compounds, they were incubated for the 30 minutes of the preincubation and throughout the OGD and during the reoxygenation. Two OGD-reoxygenation protocols were used: (i) 1 hour of OGD and 2 hours of reoxygenation and (ii) 15 minutes of OGD followed by 2 hours of reoxygenation.
# When the OGD-reoxygenation protocol (ii): 15 minutes of OGD followed by 2 hours of reoxygenation was used, the slices were incubated with increasing concentrations of compound Ic (0.3 and 1 μM) or with increasing concentrations of compound Ib (1 and 3 μM). In the same study these two compounds of the invention were compared with N-acetylcysteine (NAC) at 10 mM. The baseline (slices in the absence of compound Ic or Ib and of OGD) and the control (slices in the absence of compound Ic or Ib and with OGD) were also included.
# For the protocol of 15 minutes of OGD followed by 2 hours of reoxygenation, the cell viability was evaluated by means of the tetrazolium salt MTT, which is internalized in those cells which are viable and are therefore capable of reducing the tetrazolium to formazan which is an insoluble and coloured product which is deposited in the […]. To that end, after the experiment had ended, the hippocampal slices were incubated with MTT at a final concentration of 0.5 mg/mL in a Krebs-HEPES solution (in mM: NaCl, 144; KCl, 5.9; MgCl2, 1.2; CaCl2, 2; HEPES, 10; glucose, 11; at pH 7.3) at 37° C. After 3 hours, the medium was removed and the formazan precipitated in the solution was dissolved in dimethylsulfoxide. Then, the absorbance was measured in a plate reader (Labsystems iEMS Reader MF), at 500 nm. The data were represented taking the result of the baseline slices, i.e., those not subjected to OGD, as 100% viability.
# [1] = system: SH-SY5Y human neuroblastoma cell line; test: Cell toxicity study, LDH release, SH-SY5Y cells incubated 48 hours; assay type: cell-based; details: 100 μM, 48 hours incubation
# Experimental: The cell toxicity studies were performed on the SH-SY5Y human neuroblastoma cell line, incubating said cells for 48 hours with the compound under study. The cell viability was assessed by quantifying the release of lactate dehydrogenase (LDH), which is a cytoplasmic enzyme which is released into the extracellular medium when the integrity of the cytoplasmic membrane is lost.
# [2] = system: SH-SY5Y human neuroblastoma cells; test: Neuroprotection against cell death induced by rotenone plus oligomycin-A (oxidative stress), LDH release; assay type: cell-based
# Experimental: An oxidative stress model consists of blocking mitochondrial respiratory chain complexes I and V by means of the combination of rotenone plus oligomycin-A, respectively. As a result of the interruption of the mitochondrial respiratory chain, the cell is unable to continue producing ATP, and the free radicals are generated exceeding the capacity of the cell to neutralize them, and as a result, cell death occurs.
# SH-SY5Y human neuroblastoma cells were cultured in a monolayer in 75 cm^2 flasks with a vented stopper. The culture medium used was Dulbecco's Modified Eagle's Medium (DMEM) with a high glucose content ([…]) and supplemented with 10% foetal bovine serum, 2 mM L-Glutamine, 50 IU/mL penicillin and 50 μg/mL streptomycin.
# The cell cultures were maintained in an incubator at 37° C. in a humid environment, with 5% CO2 and 95% air. The culture medium was changed twice a week, performing 1:4 passages when the cells reached 70-80% confluence. To perform the passages, the cells were detached by means of their treatment with trypsin-EDTA.
# For the cell viability assays, the cells were seeded in sterile 48-well plates at a density of 80,000 cells/well. The experiments were performed 24-48 hours after their seeding.
# To evaluate the neuroprotective effect of the compounds, the SH-SY5Y cells were preincubated for 24 hours with the compound under study, and subsequently incubated for 24 hours with the compound under study in the presence of the toxic substances (a combination of 10 μM rotenone and 1 μM oligomycin-A); at the end of this period the cell viability was evaluated by quantifying the release of the LDH enzyme.
# The assessment of this enzyme was performed by means of a commercial kit (Cytotoxicity detection kit-LDH; Roche) following the instructions of the company. The samples were colorimetrically analyzed in a plate reader (Labsystems iEMS Reader MF), using the suitable filter at 490-600 nm and obtaining the absorbance values.
# The % of cell death was defined as the % of LDH released into the extracellular medium with respect to the total (sum of intra- and extracellular LDH).
# Compounds Ic and Ib were studied at four concentrations (0.001, 0.003, 0.01 and 0.03 μM), chondroitin sulphate (supplied by Bioibérica, S.A.) was assayed at two concentrations (10 and 60 μM) and trolox (Sigma Aldrich) was assayed at two concentrations (30 and 300 μM). The experiment also included the baseline (SH-SY5Y cells in the absence of compound and of toxic stimulus) and the control (SH-SY5Y cells cultured in the absence of compound and in the presence of the toxic stimulus rotenone plus oligomycin).
# [3] = system: mice (photothrombotic stroke model); test: Experimental photothrombotic stroke model, cortical infarction volume; assay type: in vivo, mouse; details: 15 mg/kg i.p.
# From the text: Neuronal death occurs during brain ischemia or stroke; therefore a medicament with a neuroprotective profile can have a therapeutic potential in patients who have suffered from a cerebral infarction or stroke. To explore if the compounds of formula (I) can offer neuroprotection in vivo, the experimental photothrombotic stroke model was used. In the photothrombosis model a focal cerebral infarction is induced in the area of the cortex illuminated by means of a cold light source in mice previously treated with the Rose Bengal stain; this stain is photosensitive and produces free radicals when it is stimulated with light, causing lesions in the surrounding vascular endothelium, which causes platelet aggregation and the formation of thrombi in the microvessels of the cerebral cortex (Non-invasive induction of focal cerebral ischemia in mice by photothrombosis of cortical microvessels: characterization of inflammatory responses, M. Schroeter et al., J Neurosci Methods. 117(1), 43-49. (2002); Melatonin reduces infarction volume in a photothrombotic stroke model in the wild-type but not cyclooxygenase-1-gene knockout mice, L Y. Zhou et al., J Pineal Res. 41(2), 150-156. (2006)).
# Adult male Swiss breed mice from Harlan laboratories (Barcelona), with a weight of about 30 g, were used. Once anaesthetised with isoflurane, the mice were placed in a stereotaxic frame, maintaining their rectal temperature at 37±0.5° C. during the entire procedure. Subsequently, the cranium was exposed by means of a dorsomedial incision in the skin and the periosteum was removed. By means of the use of a micromanipulator, a fibre-optic cable was placed to emit a beam of light of 1.9 mm in diameter and 3000° K, connected to a cold light source (Zeiss KL 1500), in 2.0 mm posterior and 3.0 mm lateral to Bregma on the right side. According to the mouse brain atlas (Franklin and Paxinos, 1986), the sensitive-motor cortex, the putamen caudate and the hippocampus are right below this stereotaxic position. Then, the mice were injected with 1 mg of the Rose Bengal photosensitive probe and the brain was illuminated through the intact cranium for 30 minutes. Finally, the skin was sutured and the animals were left in a cage until their recovery under observation.
# The animals were sacrificed by decapitation 72 hours after the ischemia. […]
# To quantify the cortical cerebral infarction volume, the sections stained with TTC were scanned on both their rostral and caudal part and by means of the image analysis programme ImageJ 1.41 (National Institutes of Health, Bethesda, Md., USA) the area of the ipsi-, contralateral cortex and the cerebral infarction of each of the sections scanned, both in the caudal and rostral part, was quantified. Subsequently, the cerebral infarction volume was calculated. […]
structure (smiles),measurement,setting,value
"CC(=O)N[C@@H](CS)C(=O)O [N-acetylcysteine, reference compound]",viability at 10000 µM,"rat hippocampal slices; Rattus norvegicus, 10 mM, 15 minutes OGD, 2 hours reoxygenation, baseline 100%, control 67%, read-out: maximum statistically significant protection (cell viability, MTT)",83%
CO[C@H]1OC(COS(=O)(=O)[O-])[C@@H](O)[C@H](O[C@@H]2OC(C(=O)[O-])[C@@H](O)[C@H](O)C2O)C1NC(C)=O.[Na+].[Na+] (stereo partly drawn) [compound Ib],cell toxicity (release of LDH),[1],did not show toxicity
same,maximum statistically significant protection against cell death (% of released LDH) induced by rotenone and oligomycin,"[2]; 0.03 μM, 24 h preincubation + 24 h with 10 μM rotenone and 1 μM oligomycin-A",40%
same,protective effect compared with chondroitin sulphate and trolox,"[2]; Ic, Ib at 0.001-0.03 μM vs chondroitin sulphate 10 and 60 μM, trolox 30 and 300 μM",more effective than chondroitin sulphate and than trolox
same,efficacy in comparison with N-acetylcysteine,"rat hippocampal slices; Ic 0.3 and 1 μM, Ib 1 and 3 μM vs N-acetylcysteine 10 mM",higher efficacy
same,viability at 3 µM,"rat hippocampal slices; Rattus norvegicus, 3 μM, 15 minutes OGD, 2 hours reoxygenation, baseline 100%, control 67%, read-out: maximum statistically significant protection (cell viability, MTT)",85%
"COc1ccc2[nH]cc(CCNC(C)=O)c2c1 [melatonin, reference compound]",cortical infarction volume,"[3]; 72 hours after ischemia, saline 6.1±2.18%, mean and standard deviation",4.3±1.63%
same,protection (reduction of cortical infarction volume),[3]; p<0.05 vs saline,29%
"Cc1c(C)c2c(c(C)c1O)CCC(C)(C(=O)O)O2 (stereo not drawn) [trolox, reference compound]",effect on cell death induced by rotenone and oligomycin,[2]; 30 and 300 μM,reduced cell death

# From patent US8785416B2, “Sulphated disaccharides for the treatment of neurodegenerative and/or neurovascular diseases” (Bioiberica, S.A., priority 2009, dated 2014)
